According to patent US8877801B2, “Compounds and compositions as selective estrogen receptor degraders” (Novartis AG, priority 2013, dated 2014):

target: T1, ER (Homo sapiens, UniProt P03372); experiment: ER transcription assay (MCF7 cells), ERE-luciferase reporter; assay type: cell-based; conditions: MCF7 cells, ER reporter gene, 0.1 nM 17β estradiol, 24 hours; read-out: MCF7 IC50 (inflection point of the inhibition of transcription in MCF7 cells)
T1 construct: transfected in MCF7 cells (containing endogenous ER); endogenous in cells; host or cells: MCF7 cells
T1 sequence (P03372 1-595): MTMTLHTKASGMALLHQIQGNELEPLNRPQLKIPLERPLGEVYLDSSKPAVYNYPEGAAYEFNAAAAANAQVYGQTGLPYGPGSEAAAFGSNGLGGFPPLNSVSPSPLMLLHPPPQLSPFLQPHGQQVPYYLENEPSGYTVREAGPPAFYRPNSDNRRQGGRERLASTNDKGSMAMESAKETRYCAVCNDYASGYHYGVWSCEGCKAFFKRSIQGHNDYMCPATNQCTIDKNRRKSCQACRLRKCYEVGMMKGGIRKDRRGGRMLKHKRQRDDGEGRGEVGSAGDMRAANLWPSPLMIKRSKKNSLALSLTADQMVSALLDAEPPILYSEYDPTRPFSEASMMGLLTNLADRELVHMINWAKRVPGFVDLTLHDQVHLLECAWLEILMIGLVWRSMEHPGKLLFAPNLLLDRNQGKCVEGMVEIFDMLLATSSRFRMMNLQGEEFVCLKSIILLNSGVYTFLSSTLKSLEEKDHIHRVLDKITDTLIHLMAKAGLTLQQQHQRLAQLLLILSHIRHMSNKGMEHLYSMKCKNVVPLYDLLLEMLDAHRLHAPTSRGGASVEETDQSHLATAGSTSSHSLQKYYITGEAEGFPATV
Source text: ER Transcription Assay (MCF7 Cells)
The ER transcription assay is a reporter assay that is based on the ability of ER to induce transcription from a luciferase reporter gene containing estrogen response elements (EREs) in the promoter/enhancer region. When the reporter gene is transfected in MCF7 cells (containing endogenous ER), transcription is reflected by the level of luciferase expression.
A day before transfection, cells are split into a T75 flask at a cell density of 300,000 cells/mL (10 mL total) and allowed to attach overnight in a humidified CO2 incubator at 37° C.
Approximately 20 ug DNA is mixed in OptiMEM (Invitrogen) to a total volume of 650 μL. Following incubation, the OptiMEM-DNA mixture is added to the OptiMEM-Lipofectin mix and incubated for 15 minutes at 37° C. The DNA-Lipofectin mixture is then added directly to the T75 flask and the flask is returned to the incubator.
After overnight incubation, compound is added to individual wells of a 96-well plate in a 10 μL volume of media at 10× concentration along with 17β estradiol whose final concentration is 0.1 nM. Normally, DMSO (used as a vehicle) is included to achieve a final concentration of 0.1% when added to the cells. Transfected cells are trypsinized, resuspended in DMEM/F12/10% charcoal-stripped serum and added to the 96-well plate at 25,000 cells/well in 90 μL of media. The plate is then returned to the incubator for 24 hours.
After incubation with compounds for 24 hours, Firefly and Renilla luciferase activities are measured to determine ER transcriptional activity. Media is removed from 96-well plates by decanting and blotting on paper towels.
One second total read time after a one second delay.
One second total read time after one second delay. If Firefly luciferase signal is high, Renilla assay must be done an hour after the Firefly assay due to incomplete squelching of Firefly signal.
The data describing the antagonist and degradation properties for the examples is compiled in table 10. The column titled MCF7 IC50 reports the inflection point of the inhibition of transcription in MCF7 cells as described above. Percentage ERα remaining reports the remaining ERα protein measured at 10 μM concentration of the ligand as described above. The column ERα IC50 reports the inflection point of the degradation in response to the ligand concentration.

| Structure (SMILES) | IC50 |
| --- | --- |
| CC(C)(C)c1ccccc1-c1sc2cc(O)ccc2c1Oc1ccc(/C=C/C(=O)O)cc1 [Example 20, (E)-3-(4-((2-(2-(tert-butyl)phenyl)-6-hydroxybenzo[b]-thiophen-3-yl)oxy)phenyl)-acrylic acid] | 36 nM |
| O=C(O)/C=C/c1ccc(Oc2c(-c3ccccc3Cl)sc3cc(O)ccc23)cc1 [Example 9, (E)-3-(4-((2-(2-chlorophenyl)-6-hydroxybenzo[b]-thiophen-3-yl)oxy)phenyl)-acrylic acid] | 407 nM |
| Cn1nnnc1/C=C/c1ccc(Oc2c(-c3ccc(F)cc3)sc3cc(O)ccc23)cc1 [Example 52, (E)-2-(4-fluorophenyl)-3-(4-(2-(1-methyl-1H-tetrazol-5-yl)vinyl)phenoxy)benzo [b]thiophen-6-ol] | 5980 nM |
| O=C(/C=C/c1ccc(Oc2c(-c3ccc(O)cc3)sc3cc(O)ccc23)cc1)NCCC(F)(F)F [Example 31, (E)-3-(4-((6-hydroxy-2-(4-hydroxyphenyl)benzo[b]thiophen-3-yl)oxy)phenyl)-N-(3,3,3-trifluoropropyl)acrylamide] | 10 nM |
| O=C(O)/C=C/c1ccc(Oc2c(-c3ccc(O)c(F)c3)sc3cc(O)ccc23)cc1 [Example 40, (E)-3-(4-((2-(3-fluoro-4-hydroxyphenyl)-6-hydroxybenzo[b]thiophen-3-yl)oxy)phenyl)acrylic acid] | 424 nM |
| O=C(O)/C=C/c1ccc(Oc2c(-c3ccc(O)cc3)sc3cc(O)ccc23)cn1 [Example 29, (E)-3-(5-((6-hydroxy-2-(4-hydroxyphenyl)benzo[b]thiophen-3-yl)oxy)pyridin-2-yl)acrylic acid] | 7750 nM |
| Cc1cc(F)ccc1-c1sc2cc(O)ccc2c1Oc1ccc(/C=C/C(=O)NO)cc1 [Example 32, (E)-3-(4-((2-(4-fluoro-2-methylphenyl)-6-hydroxybenzo[b]thiophen-3-yl)oxy)phenyl)-N-hydroxyacrylamide] | 15 nM |
| CNC(=O)/C=C/c1ccc(Oc2c(-c3ccc(F)cc3)sc3cc(O)ccc23)cc1 [Example 67, (E)-3-(4-((2-(4-fluorophenyl)-6-hydroxybenzo[b]thiophen-3-yl)oxy)phenyl)-N-methylacrylamide] | 373 nM |
| C/C(=C\C(=O)O)c1ccc(Oc2c(-c3ccc(O)cc3)sc3cc(O)ccc23)cc1 [Example 62, (E)-3-(4-((6-hydroxy-2-(4-hydroxyphenyl)-benzo[b]thiophen-3-yl)oxy)phenyl)but-2-enoic acid] | 316 nM |
| CN(c1ccc(/C=C/C(=O)O)cc1)c1c(-c2ccc(O)cc2)sc2cc(O)ccc12 [Example 30, (E)-3-(4-((6-hydroxy-2-(4-hydroxyphenyl)benzo[b]thiophen-3-yl)(methyl)amino)phenyl)acrylic acid] | 3400 nM |
| CCOC(=O)/C=C/c1ccc(Oc2c(-c3ccc(O)cc3)sc3cc(O)ccc23)c(C)c1 [Example 35, (E)-ethyl 3-(4-((6-hydroxy-2-(4-hydroxyphenyl)benzo[b]-thiophen-3-yl)oxy)-3-methylphenyl)acrylate] | 103 nM |
| COc1ccc(-c2sc3cc(O)ccc3c2Oc2ccc(/C=C/C(=O)O)cc2)cc1 [Example 26, (E)-3-(4-((6-hydroxy-2-(4-methoxyphenyl)benzo[b]thiophen-3-yl)oxy)phenyl)acrylic acid] | 647 nM |
| CC(C)c1ccccc1-c1sc2cc(O)ccc2c1Oc1ccc(/C=C/C(=O)O)cc1 [Example 4, (E)-3-(4-((6-hydroxy-2-(2-isopropylphenyl)benzo[b]thiophen-3-yl)oxy)phenyl)acrylic acid] | 6 nM |
| O=C(O)CCc1ccc(Oc2c(-c3ccc(O)cc3)sc3cc(O)ccc23)cc1 [Example 1, 3-(4-((6-hydroxy-2-(4-hydroxyphenyl)benzo[b]thiophen-3-yl)oxy)phenyl)propanoic acid] | 457 nM |
| O=C(O)/C=C/c1ccc(Oc2c(-c3ccc(OC(F)(F)F)cc3)sc3cc(O)ccc23)cc1 [Example 59, (E)-3-(4-((6-hydroxy-2-(4-(trifluoromethoxy)-phenyl)benzo[b]thiophen-3-yl)oxy)phenyl)-acrylic acid] | 1250 nM |
| O=c1nc(/C=C/c2ccc(Oc3c(-c4ccc(O)cc4)sc4cc(O)ccc34)cc2)cc(C(F)(F)F)[nH]1 [Example 50, (E)-4-(4-((6-hydroxy-2-(4-hydroxyphenyl)-benzo[b]thiophen-3-yl)oxy)styryl)-6-(trifluoromethyl)-pyrimidin-2(1H)-one] | 154 nM |
| Cc1nnc(/C=C/c2ccc(Oc3c(-c4ccc(F)cc4C)sc4cc(O)ccc34)cc2)[nH]1 [Example 49, (E)-2-(4-fluoro-2-methylphenyl)-3-(4-(2-(5-methyl-4H-1,2,4-triazol-3-yl)vinyl)phenoxy)benzo[b]thiophen-6-ol] | 41 nM |
| O=C(O)/C=C/c1ccc(Oc2c(-c3ccc(O)cc3)sc3c(F)c(O)ccc23)cc1 [Example 39, (E)-3-(4-((7-fluoro-6-hydroxy-2-(4-hydroxyphenyl)benzo[b]-thiophen-3-yl)oxy)phenyl)acrylic acid] | 653 nM |
| Cn1nnc(/C=C/c2ccc(Oc3c(-c4ccc(O)cc4)sc4cc(O)ccc34)cc2)n1 [Example 55, (E)-2-(4-hydroxyphenyl)-3-(4-(2-(2-methyl-2H-tetrazol-5-yl)vinyl)-phenoxy)benzo[b]-thiophen-6-ol] | 3 nM |
| CC(C)(C)c1ccc(-c2sc3cc(O)ccc3c2Oc2ccc(/C=C/C(=O)O)cc2)cc1 [Example 22, (E)-3-(4-((2-(4-(tert-butyl)phenyl)-6-hydroxybenzo[b]-thiophen-3-yl)oxy)phenyl)-acrylic acid] | 853 nM |
| CCCn1nnnc1/C=C/c1ccc(Oc2c(-c3ccc(F)cc3C)sc3cc(O)ccc23)cc1 [Example 53, (E)-2-(4-fluoro-2-methylphenyl)-3-(4-(2-(1-propyl-1H-tetrazol-5-yl)vinyl)phenoxy) benzo[b]thiophen-6-ol] | 320 nM |
| C[C@H](O)c1ccccc1-c1sc2cc(O)ccc2c1Oc1ccc(/C=C/C(=O)O)cc1 [Example 25, (S,E)-3-(4-((6-hydroxy-2-(2-(1-hydroxyethyl)phenyl)-benzo[b]thiophen-3-yl)oxy)phenyl)acrylic acid] | 179 nM |
| Cc1cc(F)ccc1-c1sc2cc(O)ccc2c1Oc1ccc(/C=C/c2nnnn2C)cc1 [Example 51, (E)-2-(4-fluoro-2-methylphenyl)-3-(4-(2-(1-methyl-1H-tetrazol-5-yl)vinyl)phenoxy)-benzo[b]thiophen-6-ol] | 61 nM |
| Cc1c(O)cccc1-c1sc2cc(O)ccc2c1Oc1ccc(/C=C/C(=O)O)cc1 [Example 16, (E)-3-(4-((6-hydroxy-2-(3-hydroxy-2-methyl-phenyl)benzo[b]-thiophen-3-yl)oxy)phenyl)-acrylic acid] | 128 nM |
| Cc1cc(C(F)(F)F)ccc1-c1sc2cc(O)ccc2c1Oc1ccc(/C=C/C(=O)O)cc1 [Example 10, (E)-3-(4-((6-hydroxy-2-(2-methyl-4-(tri-fluoromethyl)phenyl)-benzo[b]thiophen-3-yl)oxy)phenyl)acrylic acid] | 207 nM |
| O=C(O)/C=C/c1ccc(Oc2c(-c3ccccc3)sc3cc(O)ccc23)cc1 [Example 60, (E)-3-(4-((6-hydroxy-2-phenylbenzo[b]thiophen-3-yl)oxy)phenyl)-acrylic acid] | 2310 nM |
| Cc1cccc(-c2sc3cc(O)ccc3c2Oc2ccc(/C=C/C(=O)O)cc2)c1C [Example 13, (E)-3-(4-((2-(2,3-dimethylphenyl)-6-hydroxybenzo[b]-thiophen-3-yl)oxy)phenyl)-acrylic acid] | 151 nM |
